In US20240368145A1, “METHODS FOR TREATING CANCER” (IMMUNIC AG, priority 2021, published 2024):
pIC50: −log10 of the molar value.

Tests used:
Type in all cases: cell-based
IL-17A = experiment: Cytokine assay, human PBMC stimulated with PHA: IL-17A; conditions: PHA-activated, 48 hours, read-out: IL-17A inhibition (IC50 range)
Procedure: Peripheral blood mononuclear cells (PBMC) from healthy human donors were purified using Accuspin™ System-Histopaque-1077 (Sigma) according to the protocol recommended by the manufacturer. Purified PBMC were then washed twice with phosphate-buffered saline (PBS) and resuspended in RPMI1640 culture medium supplemented with 10% dialyzed heat inactivated fetal calf serum, 1.5 mM L-glutamine, 100 U penicillin/mL and […] streptomycin/mL (all from PAN Biotech, Aidenbach, Germany). For stimulation, PBMC were seeded at 1×10^5 cells/well, activated with 2 gg/mL phytohaemagglutinin (PHA, Sigma) and incubated with the test compounds for 48 hours. IL-17A, IL-17F and INFγ were then determined in the culture supernatant using a Luminex BioPlex system, following the manufacturer's instructions (BioRad, Munich, Germany). To determine the IC50, compounds were titrated semilogarithmically.
Cytokines were determined in the aforementioned culture supernatant using the following methods: IL-17A was measured using the human homodimer IL-17A ELISA Ready Set Go Kit from cBioscience (Frankfurt, Germany); IL-17F using the human IL-17F ELI-Pair from Holzel Diagnostica GmbH (K51n, Germany); and IFNγ using the OptEIA human IFN-g ELISA from BD Bioscience (Heidelberg, Germany), all following the manufacturer's instructions.

[1] = system: prostate cancer cell line PC3; experiment: Oncolead sulforhodamin B growth inhibition, PC3; conditions: sulforhodamin B assay; 72 and 120 h treatment; read-out: GI50 range PC3
Procedure: (§1) Cell growth was assessed by measuring protein content using sulforhodamin B. Growth inhibition was calculated by (TCMD−T0)/TNCT72h−T0)*100% with TCMD is the tumor growth at 72 h with the respective compound concentration. To is the protein content of the cell line before treatment and TNCT72h is the tumor growth of the DMSO control.

[2] = system: prostate cancer cell line DU145; experiment: Oncolead sulforhodamin B growth inhibition, DU145; conditions: Homo sapiens, DU-145; sulforhodamin B assay; 72 and 120 h treatment; read-out: GI50 range DU145
Procedure: as §1

[3] = system: prostate cancer cell line VCaP; experiment: Oncolead sulforhodamin B growth inhibition, VCaP; conditions: for GI50: Homo sapiens, VCaP, sulforhodamin B assay, 72 and 120 h treatment, read-out: GI50 range VCAP; for effect on growth of VCaP: highest dose (30 μM)
Procedure: as §1

[4] = system: prostate cancer cell line LNCAP; experiment: Oncolead sulforhodamin B growth inhibition, LNCAP; conditions: Homo sapiens, sulforhodamin B assay, 72 and 120 h treatment, read-out: GI50 range LNCAP
Procedure: as §1

[5] = system: full length AR (AR-FL) mRNA; experiment: Androgen receptor RNA level expression (qRT-PCR) in 22Rv1: AR-FL; conditions: 22Rv1, 1 μM, 48 h; for mrna remaining at 1 µM: Homo sapiens, normalized to untreated control (vehicle/DMSO)
Procedure: The prostate cancer cell line 22Rv1 was treated for 48 h with 1 μM Example compound 1, 1/1, 1/2, 2/1, 2/2, 2/3, 2/4, 2/5, 2/6, 2/7, 2/8, 2/9 and 2/10 and the reference compounds SR2211 and XY018 (Nat. Med. 2016; 22:488). RNA was extracted using the RNA isolation kit XS (Macherey-Nagel) and following the manufacture's manual. RNA quantity was measured with the Nanodrop before reverse transcription using Superscript II (Invitrogen #100004925). For the quantitative real-time PCR with SYBR-Green (Qiagen #204074), the following primers were used: AR forward-ACATCAAGGAACTCGATCGTATCATTGC and reverse-TTGGGCACTTGCACAGAGAT, AR-V7: forward-CCATCTTGTCGTCTTCGGAAATGTTATGAAGC and reverse-TTTGAATGAGGCAAGTCAGCCTTTCTT. The qRT-PCR proceeded as follows: denaturation for 5 min 95° C.; 40 cycles of “20 sec at 95° C. and 15 sec at 60° C.” and at the end of the last cycle, the melting temperature of the products was determined by gradually increasing it from 60° C. to 99° C. CT values from all samples were normalized to two different reference (housekeeping) genes using the mean CT value of the GAPDH and YWHAZ (reference genes). Next the values are normalized to the untreated control (vehicle/DMSO).

KLK2 mRNA = experiment: Expression of AR target genes (qRT-PCR) in 22Rv1: KLK2; conditions: 22Rv1, 1 μM; for mrna remaining at 1 µM: Homo sapiens, 48h, relative to vehicle control (DMSO)
Procedure: The prostate cancer cell line 22Rv1 was treated for 48h with 1 μM Example compound 1, 1/1, 2/1, 2/2, 2/3, 2/4, 2/5, 2/6, 2/7, 2/8, 2/9 and 2/10 and reference compounds SR2211 and XY018. RNA was extracted using the RNA isolation kit XS (Macherey-Nagel) and following the manufacture's manual. RNA quantity was measured with the Nanodrop before reverse transcription using Superscript II (Invitrogen #100004925). For the quantitative real-time PCR with SYBR-Green (Qiagen #204074), the following primers were used:
qRT-PCR was performed using SYBR-Green (Qiagen #204074) reagents in a PCR cycler (Gorbett Research) Rotor Gene RG3000 with the following program: denaturation for 5′ at 95° C.; 40 cycles of 20″ at 95° C. and 15″ at 60° C.″ and at the end of the last cycle, the melting temperature of the products was determined by gradually increasing from 60° C. to 99° C. CT values from all samples were normalized to reference (housekeeping) genes using the mean CT value of the GAPDH and YWHAZ (reference genes). Next the values are put relative to the untreated control (vehicle/DMSO).

RORγt = biological target: T1, RORγt (Homo sapiens, UniProt P51449); experiment: RORγt inhibition, Indigo Biosciences Human RAR-related Orphan Receptor, Gamma Reporter Assay System; conditions: luciferase reporter cells, 22-24 h incubation; read-out: IC50 range, RORγt assay
T1 sequence (P51449 269-518 limits assumed): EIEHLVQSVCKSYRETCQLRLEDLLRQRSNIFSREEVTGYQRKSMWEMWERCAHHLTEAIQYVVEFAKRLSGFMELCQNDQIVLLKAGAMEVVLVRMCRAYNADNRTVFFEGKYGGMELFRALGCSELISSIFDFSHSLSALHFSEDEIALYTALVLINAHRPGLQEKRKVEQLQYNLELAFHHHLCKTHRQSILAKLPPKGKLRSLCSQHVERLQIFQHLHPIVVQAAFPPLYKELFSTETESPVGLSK
Procedure: The in vitro inhibition of RORγt was measured using Indigo Biosciences Human RAR-related Orphan Receptor, Gamma Reporter Assay System (Product #11304001-32) as described in the technical manual. In brief, 200 μL of Reporter Cells is dispensed into wells of the assay plate and preincubated for 4-6 h. Following the pre-incubation period, culture media are discarded and 200 μL/well of the prepared 1×-concentration treatment media are added. Following 22-24 h incubation, treatment media are discarded and Luciferase Detection Reagent is added. The intensity of light emission (in units of ‘Relative Light Units’; RLU) from each assay well is quantified using a plate-reading luminometer. Average values of RLU were determined for each treatment concentration. Non-linear regression analyses were performed and IC50 values determined using GraphPad Prism software. Provided inverse-agonists ursolic acid served as positive control.

SMILES	pIC50 (IL-17A)	GI50 [1] [nM]	GI50 [2] [nM]	GI50 [3] [nM]	effect on growth of VCaP [3]	GI50 [4] [nM]	full length AR (AR-FL) mRNA expression [5]	mrna remaining at 1 µM [5] [%]	mrna remaining at 1 µM (KLK2 mRNA) [%]	pIC50 (RORγt)	KLK2 mRNA level expression (KLK2 mRNA; 48 h)
COC(=O)c1c(-c2c(F)cccc2Cl)noc1-c1cnn(-c2cccc(Cl)c2)c1C(F)(F)F [Example 1, Methyl 3-(2-chloro-6-fluorophenyl)-5-(1-(3-chlorophenyl)-5-(trifluoromethyl)-1H-pyrazol-4-yl)isoxazole-4-carboxylate]	> 7.60	< 25	< 25	≥ 5000	No effect	25 to 100	strong reduction	44.2	59.8	> 8.00	–
CC(C)(O)CCn1ncc(-c2onc(-c3c(F)cccc3Cl)c2-c2ncccn2)c1C(F)(F)F [2/8]	> 7.60	< 25	< 25	≥ 5000	No effect	100 to 5000	strong reduction	44.9	60.8	7.00 to 8.00	strong inhibition
Fc1cccc(Cl)c1-c1noc(-c2cnn(-c3cccc(Cl)c3)c2C(F)(F)F)c1-c1nccs1 [Example 1/1]	> 7.60	< 25	< 25	≥ 5000	No effect	< 25	strong reduction	43.6	74.2	> 8.00	–
